The results in this text go back to the OligoGym collection.

“And” between values parts separate entries of the source, which are not always exact repeats. Equal entries are not always repeated. After the bases stand the sugars from the 5' end (letter, count) and the backbone: PS all phosphorothioate, else s phosphorothioate and o phosphodiester by linkage. Methylation of C is not given here. e = 2'-O-(2-methoxyethyl) (MOE); d = 2'-deoxy (DNA)

The data set has as its target DGAT2. To be noted: ASO.

In the case of “AGCCTGGACAAGTCCTGCCC (sugars e3 d14 e3, PS)”, the target mRNA inhibition is, setting by setting: (HepG2, 0.12 µM) 82%; (HepG2, 2.5 µM) 35% and 53%; (HepG2, 10 µM) 84%; (HepG2, 20 µM) 59%.
The sequence “AGCTCAGAGACTCAGCCGCA (sugars e3 d14 e3, PS)” returned a target mRNA inhibition (HepG2, 0.12 µM) of 77%.
With “AGCTCTCAAGTCTTCCTCCT (sugars e5 d10 e5, PS)”, the target mRNA inhibition (HepG2, 2.5 µM) is 62% and 76%; the target mRNA inhibition (HepG2, 10 µM) is 89% and 92%.
On to “AGCTGTGATGACTTCCCAGG (sugars e5 d10 e5, PS)”, for which the target mRNA inhibition stood at 52% (HepG2, 2.5 µM) and 91% (HepG2, 10 µM).
As for “AGGACCCCGGAGTAGGCGGC (sugars e3 d14 e3, PS)”, the target mRNA inhibition (HepG2, 0.12 µM) was found to be 76%.
On to “AGGAGTTCTCGAATATCCCT (sugars e5 d10 e5, PS)”, for which the target mRNA inhibition is, setting by setting: (HepG2, 2.5 µM) 55% and 50%; (HepG2, 10 µM) 87%.
Consider “AGGAGTTTGTGTTTCCCATT (sugars e5 d10 e5, PS)”, for which the target mRNA inhibition (HepG2, 0.12 µM) is 39%.
On to “AGGATGCAGGGTTACCCAGC (sugars e5 d10 e5, PS)”, for which the target mRNA inhibition came to 81% (HepG2, 2.5 µM) and 71% (HepG2, 10 µM).
Consider “AGGCAAAGTAACATACCTGC (sugars e5 d10 e5, PS)”, for which the target mRNA inhibition is, setting by setting: (HepG2, 2.5 µM) 71% and 74%; (HepG2, 10 µM) 94% and 91%.
With “AGGCATGGAGCTCAGAGACT (sugars e5 d10 e5, PS)”, the target mRNA inhibition is 69% and 83% (HepG2, 0.12 µM); 39% (HepG2, 2.5 µM); 84% (HepG2, 10 µM); 51% (HepG2, 20 µM).
Turning to “AGGGCCAGTTTCACAAAGCC (sugars e5 d10 e5, PS)”, the target mRNA inhibition (HepG2, 0.12 µM) amounted to 33%.
The sequence “AGGGTTCATGGATCCCC (sugars e3 d10 e4, PS)” returned a target mRNA inhibition (HepG2, 2.5 µM) of 46% and a target mRNA inhibition (HepG2, 10 µM) of 76%.
The sequence “AGGTAAGGCCGTATGCCTGG (sugars e2 d13 e5, PS)” displayed a target mRNA inhibition (HepG2, 0.12 µM) of 63%.
In the case of “AGGTAGAGTTCTATTGCTTC (sugars e5 d10 e5, PS)”, the target mRNA inhibition was 81% (HepG2, 2.5 µM); 88% and 92% (HepG2, 10 µM).
Sequence “AGGTTGTGTGTCTTCACCAG (sugars e2 d13 e5, PS)” showed a target mRNA inhibition (HepG2, 0.12 µM) of 61%.
In turn, “AGTAGGGCACCAGCCCCCAG (sugars e5 d10 e5, PS)” yielded a target mRNA inhibition (HepG2, 0.12 µM) of 0%.
Take “AGTCAAACCTAGGTTCAGAC (sugars e5 d10 e5, PS)”: the target mRNA inhibition amounted to 81% (HepG2, 2.5 µM) and 55% (HepG2, 10 µM).
In the case of “AGTTTCGGACCCACTGTGAC (sugars e3 d14 e3, PS)”, the target mRNA inhibition (HepG2, 0.12 µM) turned out to be 60%.
On to “ATACCTCCAGACATCAGGTA (sugars e5 d10 e5, PS)”, for which the target mRNA inhibition (HepG2, 0.12 µM) is 50%.
Same read-out and setting: next, “ATAGCATTGCCACTCCCATT (sugars e2 d13 e5, PS)”: 57%.
On the same count and under the same terms, next, “ATAGCATTGCCACTCCCATT (sugars e5 d10 e5, PS)”: 57%; “ATATAGTTCCTGGTGGTCAG (sugars e5 d10 e5, PS)”: 53%.
“ATCACAATATATGGGCAAGC (sugars e5 d10 e5, PS)”: the target mRNA inhibition is, setting by setting: (HepG2, 2.5 µM) 83% and 86%; (HepG2, 10 µM) 92% and 94%.
For “ATCAGCTATAGAATCAGACA (sugars e5 d10 e5, PS)”, the target mRNA inhibition runs as follows: (HepG2, 2.5 µM) 16%; (HepG2, 10 µM) 75%.
Under “HepG2, 0.12 µM”, “ATCCAAAGATATAGTTCCTG (sugars e5 d10 e5, PS)” had a target mRNA inhibition of 39%.
On to “ATCCAATGCACCTTGTATTA (sugars e5 d10 e5, PS)”, for which the target mRNA inhibition is, setting by setting: (HepG2, 2.5 µM) 57%; (HepG2, 10 µM) 93%.
For “ATCCATGTCAGAGAGGCTCA (sugars e5 d10 e5, PS)” the same measures were 66% and 88%.
Take “ATCCTGCCAGAGTTATCCTC (sugars e5 d10 e5, PS)”: the target mRNA inhibition is 86% (HepG2, 2.5 µM) and 77% (HepG2, 10 µM).
Consider “ATGCCCTTGCTGTAGGACCC (sugars e5 d10 e5, PS)”, for which the target mRNA inhibition runs as follows: (HepG2, 2.5 µM) 79% and 73%; (HepG2, 10 µM) 90%.
For the sequence “ATGGAGCTCAGAGACTCAGC (sugars e3 d14 e3, PS)”, the target mRNA inhibition (HepG2, 0.12 µM) was 71%.
Same read-out and setting: next, “ATGGAGCTCAGAGACTCAGC (sugars e5 d10 e5, PS)”: 78%; “ATGGGAAAGTAGTCTCGAAA (sugars e5 d10 e5, PS)”: 0%; “ATTTCTTTTAAATAACCCAC (sugars e5 d10 e5, PS)”: 1%.
For “CAAGAGGTAAGGCCAAGGAA (sugars e5 d10 e5, PS)”, the target mRNA inhibition is, setting by setting: (HepG2, 2.5 µM) 75%; (HepG2, 10 µM) 90%.
Take “CACAGCGATGAGCCAGC (sugars e3 d10 e4, PS)”: for the setting “HepG2, 2.5 µM”, the target mRNA inhibition is 50% and 31%.
Regarding “CACAGTTAAAGTGTGGTACA (sugars e5 d10 e5, PS)”, the target mRNA inhibition was 52% (HepG2, 2.5 µM) and 88% (HepG2, 10 µM).
On to “CACCAGCTGGATGGGAAAGT (sugars e5 d10 e5, PS)”, for which the target mRNA inhibition (HepG2, 0.12 µM) was found to be 31%.
On to “CACCTGTTACTACATGTCTA (sugars e5 d10 e5, PS)”, for which the target mRNA inhibition is 68% (HepG2, 2.5 µM) and 93% (HepG2, 10 µM).
On the same counts, the results for “CACTCTGTGATGCTCTGGAG (sugars e5 d10 e5, PS)” are 60% and 84%.
On the same counts, the results for “CAGAAGAGCAAAGGCTTGCT (sugars e5 d10 e5, PS)” are 50% and 94%.
“CAGAAGGCACCCAGGCCCAT (sugars e5 d10 e5, PS)” gave a target mRNA inhibition (HepG2, 0.12 µM) of 33%.
In the case of “CAGCAGGTTGTGTGTCTTCA (sugars e3 d14 e3, PS)”, the target mRNA inhibition (HepG2, 0.12 µM) was determined as 47%.
The same measure, in the same setting: next, “CAGCCTGGACAAGTCCTGCC (sugars e3 d14 e3, PS)”: 72%.
As to “CAGCCTGGACAAGTCCTGCC (sugars e5 d10 e5, PS)”, the target mRNA inhibition was 84% (HepG2, 0.12 µM); 81% and 90% and 88% (HepG2, 10 µM); 86% (HepG2, 20 µM).
In the case of “CAGGACCCCGGAGTAGGCGG (sugars e2 d13 e5, PS)”, the target mRNA inhibition (HepG2, 0.12 µM) was found to be 76%.
On the same count and under the same terms, as for “CAGGACCCCGGAGTAGGCGG (sugars e3 d14 e3, PS)”, the figure is 53%; as for “CAGGACTTGGTACCTGATTC (sugars e5 d10 e5, PS)”, 35%; as for “CAGGCATGGAGCTCAGAGAC (sugars e2 d13 e5, PS)”, 70%.
Same read-out and setting: as for “CAGGCATGGAGCTCAGAGAC (sugars e3 d14 e3, PS)”, the figure is 76%; as for “CAGGCCACTCCCAGTACAAG (sugars e5 d10 e5, PS)”, 1%.
Same read-out and setting: next, “CAGGGCCTCCATGTACATGG (sugars e5 d10 e5, PS)”: 37%.
Turning to “CAGGGTCTGCCACTCTCTAC (sugars e5 d10 e5, PS)”, the target mRNA inhibition (HepG2, 2.5 µM) was 56% and the target mRNA inhibition (HepG2, 10 µM) amounted to 85%.
Turning to “CAGGTCTATGCTGCAGTCAT (sugars e5 d10 e5, PS)”, the target mRNA inhibition is 53% and 45% (HepG2, 2.5 µM); 89% and 82% (HepG2, 10 µM).
As for “CATAGGCCAGGAGGAAGAGT (sugars e5 d10 e5, PS)”, the target mRNA inhibition (HepG2, 0.12 µM) was found to be 35%.
The same measure, in the same setting: as for “CATCACATGCTTATCCTTGA (sugars e5 d10 e5, PS)”, the figure is 41%; as for “CATCAGGTACTCCCTCAACA (sugars e5 d10 e5, PS)”, 35%; as for “CATGGAGCTCAGAGACTCAG (sugars e2 d13 e5, PS)”, 71%.
Still for that read-out and setting: next, “CATGGAGCTCAGAGACTCAG (sugars e5 d10 e5, PS)”: 65%; “CATTGCCACTCCCATTCTTT (sugars e5 d10 e5, PS)”: 44%.
As for “CATTGCTCAGATCACTCTGC (sugars e5 d10 e5, PS)”, the target mRNA inhibition reads like this: (HepG2, 2.5 µM) 88%; (HepG2, 10 µM) 74%.
With “CCAACAGTGGTGATGGGCTT (sugars e5 d10 e5, PS)”, under “HepG2, 0.12 µM”, the target mRNA inhibition was determined as 60%.
Same read-out and setting: next, “CCAACTCCTCCCCTTGGCAG (sugars e5 d10 e5, PS)”: 28%.
Still for that read-out and setting: as for “CCAAGTAAGCCTCGGTGTCC (sugars e5 d10 e5, PS)”, the figure is 32%.
Take “CCACAGCGATAATCACA (sugars e3 d10 e4, PS)”: the target mRNA inhibition was 63% and 60% (HepG2, 2.5 µM); 84% and 75% (HepG2, 10 µM).
For “CCACTCCCATTCTTTGAAAG (sugars e5 d10 e5, PS)”, the target mRNA inhibition (HepG2, 0.12 µM) amounted to 34%.
Same read-out and setting: as for “CCACTGGAGCACTGAGATGA (sugars e2 d13 e5, PS)”, the figure is 54%.
As to “CCACTGTTGCTGAGCTCATG (sugars e5 d10 e5, PS)”, the target mRNA inhibition worked out at 68% (HepG2, 2.5 µM) and 88% (HepG2, 10 µM).
In turn, “CCCACTGGAGCACTGAGATG (sugars e5 d10 e5, PS)” registered a target mRNA inhibition (HepG2, 0.12 µM) of 78%.
Consider “CCCATCATGACCAGGCCCTG (sugars e5 d10 e5, PS)”, for which the target mRNA inhibition was determined as 31% (HepG2, 2.5 µM) and 77% (HepG2, 10 µM).
For “CCCGGAGTAGGCGGCTATGA (sugars e5 d10 e5, PS)” the same measures were 60% and 89%.
For “CCTAAAGGTGAAGACTGGCT (sugars e5 d10 e5, PS)”, the target mRNA inhibition reads like this: (HepG2, 2.5 µM) 77% and 79%; (HepG2, 10 µM) 93% and 94%.
The sequence “CCTCATCTCAGTGCCCAAAG (sugars e5 d10 e5, PS)” registered a target mRNA inhibition (HepG2, 2.5 µM) of 25% and a target mRNA inhibition (HepG2, 10 µM) of 63%.
Take “CCTCGAAGATCACCTGCTTG (sugars e5 d10 e5, PS)”: the target mRNA inhibition (HepG2, 0.12 µM) was determined as 53%.
For “CCTCGATGTTACATTAAGGG (sugars e5 d10 e5, PS)”, the target mRNA inhibition runs as follows: (HepG2, 2.5 µM) 82% and 88%; (HepG2, 10 µM) 86% and 90%.
For the setting “HepG2, 0.12 µM”, “CCTGGACAAGTCCTGCCCAT (sugars e3 d14 e3, PS)” returned a target mRNA inhibition of 70%.
Where the note is “HepG2, 0.12 µM”, “CCTTCCAGGGAATAAAATAC (sugars e5 d10 e5, PS)” had a target mRNA inhibition of 3%.
For “CCTTTGAAATCCAATGCACC (sugars e5 d10 e5, PS)”, the target mRNA inhibition is 62% (HepG2, 2.5 µM) and 92% (HepG2, 10 µM).
